Values after ≈ are worked out from the molar mass of the structure shown. Counter-ions that a name gives are not always drawn.

For eight molecules, MIC results are on record in patent EP0391169A2, “Enantiomeric pure 7-(3-amino-1-pyrrolidinyl)-chinolon-and-naphthyridon carboxylic acids” (BAYER AG, priority 1989, dated 1990).

Common to all, as to test: MIC agar dilution test (Denley Multipoint Inoculator; Iso-Sensitest agar)
Common to all, as to type: cell-based
In general terms: In agar dilution the substance is mixed into plates at graded concentrations.

Assay [1] concerns E. coli 455/7. To be noted: Escherichia coli, 37° C, ca. 20 h, read-out: MHK-Werte. The source says: (§1) Die minimalen Hemmkonzentrationen (MHK) wurden per Reihenverdünnungsverfahren auf Iso-Sensitest Agar (Oxoid) bestimmt. Für jede Prüfsubstanz wurde eine Reihe von Agarplatten hergestellt, die bei jeweils doppelter Verdünnung abfallende Konzentrationen des Wirkstoffes enthielten. Die Agarplatten wurden mit einem Multipoint-Inokulator (Denley) beimpft. Zum Beimpfen wurden Übernachtkulturen der Erreger verwandt, die zuvor so verdünnt wurden, daß jeder Impfpunkt ca. 10^4 koloniebildende Partikel enthielt. Die beimpften Agarplatten wurden bei 37° C bebrütet, und das Keimwachstum wurde nach ca. 20 Stunden abgelesen. Der MHK-Wert (µg/ml) gibt die niedrigste Wirkstoffkonzentration an, bei der mit bloßem Auge kein Keimwachstum zu erkennen war.
(§2) In der nachfolgenden Tabelle sind die MHK-Werte einiger der erfindungsgemäßen Verbindungen im Vergleich zum entsprechenden Racemat aufgeführt: […]

The subject of assay [2] is Enteroc. faecalis 9790. Particulars: 37° C, ca. 20 h, read-out: MHK-Werte.
Description: as §1, §2

Assay [3] concerns Proteus mir. 8223. Particulars: 37° C, ca. 20 h, read-out: MHK-Werte.
Description: as §1, §2

Assay [4] concerns Providencia stuartei 12052. To be noted: 37° C, ca. 20 h, read-out: MHK-Werte.
Description: as §1, §2

Assay [5] has as its system Pseudomonas aerog. Ellsworth. To be noted: 37° C, ca. 20 h, read-out: MHK-Werte.
Description: as §1, §2

Assay [6] concerns Pseudomonas aerog. Walter. To be noted: 37° C, ca. 20 h, read-out: MHK-Werte.
Description: as §1, §2

For assay [7], the system named is Serrratia marcescene 16040. Particulars: 37° C, ca. 20 h, read-out: MHK-Werte.
Description: as §1, §2

For assay [8], the system named is E. coli A261. To be noted: Escherichia coli, 37° C, ca. 20 h, read-out: MHK-Werte.
Description: as §1, §2

Assay [9] concerns E. coli Neumann. Particulars: Escherichia coli, 37° C, ca. 20 h, read-out: MHK-Werte.
Description: as §1, §2

The subject of assay [10] is Enteroc. faecalis 27101. To be noted: 37° C, ca. 20 h, read-out: MHK-Werte.
Description: as §1, §2

Assay [11] has as its system Klebsiella pneum. 63. Particulars: 37° C, ca. 20 h, read-out: MHK-Werte.
Description: as §1, §2

In assay [12] the test system is Klebsiella pneum. 8085. To be noted: 37° C, ca. 20 h, read-out: MHK-Werte.
Description: as §1, §2

Assay [13] deals with Morg. morg. 11006. Particulars: 37° C, ca. 20 h, read-out: MHK-Werte.
Description: as §1, §2

Assay [14] has as its system Morg. morg. 932. To be noted: 37° C, ca. 20 h, read-out: MHK-Werte.
Description: as §1, §2

Assay [15] has as its system Proteus mir. 8175. Particulars: 37° C, ca. 20 h, read-out: MHK-Werte.
Description: as §1, §2

For assay [16], the system named is Proteus vulg. 1017. To be noted: 37° C, ca. 20 h, read-out: MHK-Werte.
Description: as §1, §2

The subject of assay [17] is Providencia stuartei. To be noted: Providencia stuartei (strain number not given), 37° C, ca. 20 h, read-out: MHK-Werte.
Description: as §1, §2

Assay [18] relates to Staph. aurens 133. Particulars: 37° C, ca. 20 h, read-out: MHK-Werte.
Description: as §1, §2

The subject of assay [19] is Staph. aurens 1756. Particulars: 37° C, ca. 20 h, read-out: MHK-Werte.
Description: as §1, §2

Assay [20] deals with Staph. aurens FK 422. Particulars: 37° C, ca. 20 h, read-out: MHK-Werte.
Description: as §1, §2

With `Cc1c(F)c(N2CC[C@H](N)C2)cc2c1c(=O)c(C(=O)O)cn2C1CC1` [Beispiel 5, 7-[S-(3-Amino)-1-pyrrolidinyl]-1-cyclopropyl-6-fluor-1,4-dihydro-5-methyl-4-oxo-3-chinolincarbonsäure-Hydrochlorid], the MIC is 2 µg/mL in assay [1]; 0.25 µg/mL in assay [2]; 4 µg/mL in assay [3]; 4 µg/mL in [4]; 0.25 µg/mL in [5]; 0.5 µg/mL in assay [6]. Further, the MIC in [7] came to 2 µg/mL.
Consider `N[C@H]1CCN(c2c(F)cc3c(=O)c(C(=O)O)cn(C4CC4)c3c2Cl)C1` [Beispiel 1, 7-[S-(3-Amino)-1-pyrrolidinyl]-8-chlor-1-cyclopropyl-6-fluor-1,4-dihydro-4-oxo-3-chinolincarbonsäure-Hydrochlorid], for which the MIC is 0.0009 µg/mL in [8]; not above 0.0004 µg/mL in assay [9]; 0.03 µg/mL in assay [10]; 0.03 µg/mL in [2]; 0.0039 µg/mL in [11]; 0.0039 µg/mL in [12]. The MIC was 0.0039 µg/mL in assay [13]; 0.0019 µg/mL in assay [14]; 0.0078 µg/mL in assay [15]; 0.25 µg/mL in assay [3]; not above 0.0004 µg/mL in [16]; 0.0019 µg/mL in assay [17]. The MIC in [5] was 0.03 µg/mL; in assay [6], 0.03 µg/mL; in [18] it was 0.0078 µg/mL; in [19], 0.0078 µg/mL; in [20], 0.0078 µg/mL.
`Cc1c(F)c(N2CC[C@@H](N)C2)cc2c1c(=O)c(C(=O)O)cn2C1CC1` [Beispiel 6, 7-[R-(3-Amino)-1-pyrrolidinyl]-1-cyclopropyl-6-fluor-1,4-dihydro-5-methyl-4-oxo-3-chinolincarbonsäure-Hydrochlorid]: the MIC in [1] was 8 µg/mL; in [10], 1 µg/mL; in assay [2], 2 µg/mL; in [15], 0.5 µg/mL; in assay [3], 8 µg/mL; in assay [4], 8 µg/mL. The MIC was 1 µg/mL in [5], 2 µg/mL in [6] and 4 µg/mL in [7].
Turning to `NC1CCN(c2c(F)cc3c(=O)c(C(=O)O)cn(C4CC4)c3c2F)C1` (racemic) [**), 7-(3-Amino-1-pyrrolidinyl)-6,8-difluor-1-cyclopropyl-1,4-dihydro-4-oxo-chinolincarbonsäure, reference compound], the MIC was 0.25 µg/mL (≈ 0.716 µM) in assay [1]; 0.0039 µg/mL (≈ 0.0112 µM) in [8]; 0.0039 µg/mL (≈ 0.0112 µM) in [9]; 0.0078 µg/mL (≈ 0.0223 µM) in assay [11]; 0.0078 µg/mL (≈ 0.0223 µM) in [12]; 0.0078 µg/mL (≈ 0.0223 µM) in [13]. The MIC in [14] stood at 0.0039 µg/mL (≈ 0.0112 µM); in assay [3], 0.5 µg/mL (≈ 1.43 µM); in [16] it was 0.0039 µg/mL (≈ 0.0112 µM); in assay [4], 0.25 µg/mL (≈ 0.716 µM); in assay [17], 0.0078 µg/mL (≈ 0.0223 µM); in assay [7], 0.5 µg/mL (≈ 1.43 µM).
As for `N[C@@H]1CCN(c2c(F)cc3c(=O)c(C(=O)O)cn(C4CC4)c3c2F)C1` [Beispiel 4, 7-[R-(3-Amino)-1-pyrrolidinyl]-1-cyclopropyl-6,8-difluor-1,4-dihydro-4-oxo-3-chinolincarbonsäure-Hydrochlorid], the MIC in assay [1] was found to be 0.5 µg/mL; in assay [8], 0.0078 µg/mL; in assay [9] it was 0.0078 µg/mL; in [14], 0.0078 µg/mL; in [3], 0.5 µg/mL; in [16], 0.0078 µg/mL. In addition, the MIC in assay [4] is 0.5 µg/mL; in assay [17] it was 0.0015 µg/mL; in assay [6], 0.25 µg/mL; in assay [7], 1 µg/mL.
With `N[C@@H]1CCN(c2c(F)cc3c(=O)c(C(=O)O)cn(C4CC4)c3c2Cl)C1` [Beispiel 2, 7-[R-(3-Amino)-1-pyrrolidinyl]-8-chlor-1-cyclopropyl-6-fluor-1,4-dihydro-4-oxo-3-chinolincarbonsäure -Hydrochlorid], the MIC in [1] turned out to be 0.25 µg/mL; in assay [8] it was 0.0039 µg/mL; in assay [9], 0.0019 µg/mL; in assay [10], 0.03 µg/mL; in assay [2], 0.06 µg/mL; in [11], 0.0078 µg/mL. In addition, the MIC was found to be 0.0078 µg/mL in assay [12]; 0.0078 µg/mL in [13]; 0.0039 µg/mL in assay [14]; 0.15 µg/mL in assay [15]; 0.25 µg/mL in assay [3]; 0.0019 µg/mL in assay [16]. The MIC in assay [4] is 0.25 µg/mL; in assay [17], 0.0078 µg/mL; in assay [5], 0.06 µg/mL; in assay [6], 0.06 µg/mL; in assay [7], 0.25 µg/mL.
Turning to `N[C@H]1CCN(c2c(F)cc3c(=O)c(C(=O)O)cn(C4CC4)c3c2F)C1` [Beispiel 3, 7-[S-(3-Amino)-1-pyrrolidinyl]-1-cyclopropyl-6,8-difluor-1,4-dihydro-4-oxo-3-chinolincarbonsäure-Hydrochlorid], the MIC in [1] was found to be 0.25 µg/mL; in assay [8], 0.0039 µg/mL; in [9], 0.0039 µg/mL; in assay [11], 0.0078 µg/mL; in assay [12], 0.0078 µg/mL; in [13], 0.0078 µg/mL. Also, the MIC in assay [14] was found to be 0.0039 µg/mL; in assay [3], 0.25 µg/mL; in assay [16], 0.0039 µg/mL; in assay [4] it was 0.25 µg/mL; in [17], 0.0078 µg/mL; in assay [5], 0.62 µg/mL. In [7], the MIC amounted to 0.25 µg/mL.
With `NC1CCN(c2c(F)cc3c(=O)c(C(=O)O)cn(C4CC4)c3c2Cl)C1` (racemic) [*), 7-(3-Amino-1-pyrrolidinyl)-8-chlor-1-cyclopropyl-6-fluor-1,4-dihydro-4-oxo-3-chinolincarbonsäure, reference compound], the MIC was determined as 0.0019 µg/mL (≈ 0.00519 µM) in assay [8]; 0.0019 µg/mL (≈ 0.00519 µM) in [9]; 0.03 µg/mL (≈ 0.082 µM) in assay [10]; 0.03 µg/mL (≈ 0.082 µM) in assay [2]; 0.0039 µg/mL (≈ 0.0107 µM) in [11]; 0.0039 µg/mL (≈ 0.0107 µM) in assay [12]. Besides, the MIC worked out at 0.0078 µg/mL (≈ 0.0213 µM) in assay [13]; 0.0019 µg/mL (≈ 0.00519 µM) in [14]; 0.0078 µg/mL (≈ 0.0213 µM) in [15]; 0.25 µg/mL (≈ 0.683 µM) in assay [3]; 0.0019 µg/mL (≈ 0.00519 µM) in assay [16]; 0.0039 µg/mL (≈ 0.0107 µM) in assay [17]. Further, the results for the MIC in [5], in assay [6] and in assay [7] were 0.03 µg/mL (≈ 0.082 µM), 0.06 µg/mL (≈ 0.164 µM) and 0.25 µg/mL (≈ 0.683 µM), respectively.
